Assay results as given in PubChem BioAssay AID1963869 (Molecular Pharmacology Branch, DTP, NCI, 2024).
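Also: spheroids exposed to agents for 7 days; 100% = DMSO vehicle control viability.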

The molecules below were run on KRAS patient-derived spheroids with HUVEC/MSC, viability (assay: Anticancer human tumor 323965-272-R-J2-PDC patient-derived pancreatic carcinoma cell line growth inhibition [KRAS2]). Conditions: second compound 3.16 µM; first compound 1 µM; stronger effect = lower value.
Source text: Multicellular complex tumor spheroid response to RAS pathway inhibitors in combination with a targeted agents in patient-derived cell lines with oncogenic KRAS variants from multiple cancer types
A high-throughput screen of multi-cell type tumor spheroids was designed to identify active combinations of targeted small molecules and KRAS pathway inhibitors. Complex spheroids include a stromal component modeled by human endothelial cells (HUVEC) and fibroblasts modeled by human mesenchymal stem cells (MSCs). The concentration ranges selected for each drug and investigational agent were based upon clinically achievable concentrations if the clinical Cmax of the agent was known.
Compounds. The drugs and investigational agents: BI-3406 (NSC825286), BAY-293 (NSC824723), batoprotafib (TNO155; NSC825523), sotorasib (AMG 510; NSC818433), MRTX1257 (NSC819558), elimusertib (BAY 1895344; NSC800525), molibresib (GSK525762; NSC774829), temuterkib (LY3214996; NSC803410), venetoclax (NSC766270), alisertib (NSC759677), olaparib (NSC753686), talazoparib (NSC767125), erdafitinib (NSC781556), ipatasertib (NSC767898), cabozantinib (NSC761068), nintedanib (NSC756659), abemaciclib (NSC768073), docetaxel (NSC628503), trametinib (NSC758246), and sapanisertib (NSC764658) were obtained from the National Cancer Institute (NCI) Developmental Therapeutics Program Chemical Repository. The FDA-approved anticancer drug set is available from the Developmental Therapeutics Program. […] The stock solutions were prepared in dimethyl sulfoxide (DMSO, Sigma-Aldrich, St. Louis, MO, cat. D2650) at 800-fold the tested concentration and stored at -70 degrees C prior to their use. All drugs and investigational agents were tested over a range starting from a high concentration at or near the clinical Cmax and decreasing in half-log increments. If the clinical Cmax for an agent had not been determined, the highest concentration tested was 10 microM.
Cell Culture. All cells were maintained in an incubator at 37 degrees C and 5% CO2 with 95% humidity. The PDC lines were cultured according to standard operating procedures established by the NCI PDMR (https://pdmr.cancer.gov/sops/default.htm). Briefly, all PDCs were thawed and cultured in Matrigel-coated flasks prepared with a working solution of 1X Ham's F-12 nutrient mix, without supplementation (Invitrogen, Waltham, MA, cat. 11765054), 100 U/mL penicillin-streptomycin (Invitrogen, cat. 15140122), and 2.5% Matrigel (Corning Inc., Corning, NY, cat. 354248) for the first three passages. All PDCs were cultured in complete DMEM/F-12 media containing advanced DMEM/F-12 (Invitrogen, cat. 12634028), 4.9% defined fetal bovine serum, heat inactivated (HyClone Laboratories Inc., Logan, UT, cat. SH30070.03HI), 389 ng/mL hydrocortisone (Sigma-Aldrich, cat. H4001), 9.7 ng/mL human EGF recombinant protein (Invitrogen, cat. PHG0313), 23.4 microg/mL adenine (Sigma-Aldrich, cat. A2786), 97.3 U/mL penicillin-streptomycin (Invitrogen, cat. 15140122), 1.9 mM L-glutamine (Invitrogen, cat. 25030081), and 9.7 microM Y-27632 dihydrochloride (Tocris Bioscience, Bristol, United Kingdom, cat. 1254). The PDCs were cultured in complete DMEM/F12 media without 9.7 microM Y-27632 dihydrochloride for at least two passages prior to the screen. The established cell line HOP-62 was cultured in RPMI 1640 medium, HEPES (Invitrogen, cat. 22400105) with 10% defined fetal bovine serum (HyClone Laboratories Inc., cat. SH30070.03) and 2 mM L-glutamine (Invitrogen, cat. 25030081). The pooled donor HUVEC were cultured in endothelial cell growth medium 2 (PromoCell, Heidelberg, Germany, cat. C-22011) and the hMSC were cultured in mesenchymal stem cell growth medium 2 (PromoCell, cat. C-28009). For all experiments, HUVEC and hMSC were used at passages </=5, while the malignant cell lines were used at passages </=15. […]
For CC1COCCN1c1cc(-c2ccnn2C)c2ccnc(-c3ccn[nH]3)c2n1 (stereo not given) + C=CC(=O)N1CCN(c2nc(=O)n(-c3c(C)ccnc3C(C)C)c3nc(-c4c(O)cccc4F)c(F)cc23)C(C)C1, the viability, T/C was 13.3%.
For CC1OCC2(CCN(c3cnc(Sc4ccnc(N)c4Cl)c(N)n3)CC2)C1N (stereo not given) + C=CC(=O)N1CCN(c2nc(=O)n(-c3c(C)ccnc3C(C)C)c3nc(-c4c(O)cccc4F)c(F)cc23)C(C)C1, the viability, T/C was 17.2%.
CCNC(=O)CC1N=C(c2ccc(Cl)cc2)c2cc(OC)ccc2-n2c(C)nnc21 (stereo not given) + C=CC(=O)N1CCN(c2nc(=O)n(-c3c(C)ccnc3C(C)C)c3nc(-c4c(O)cccc4F)c(F)cc23)C(C)C1 was tested, and the viability, T/C was 33.6%.
Cn1nccc1Nc1nccc(-c2cc3c(s2)C(C)(C)N(CCN2CCOCC2)C3=O)n1 + C=CC(=O)N1CCN(c2nc(=O)n(-c3c(C)ccnc3C(C)C)c3nc(-c4c(O)cccc4F)c(F)cc23)C(C)C1 gave a viability, T/C of 47.6%.

Same assay, conditions: second compound 3.16 µM; first compound 3.16 µM; stronger effect = lower value
CC1COCCN1c1cc(-c2ccnn2C)c2ccnc(-c3ccn[nH]3)c2n1 (stereo not given) + C=CC(=O)N1CCN(c2nc(=O)n(-c3c(C)ccnc3C(C)C)c3nc(-c4c(O)cccc4F)c(F)cc23)C(C)C1 showed a viability, T/C of 12.8%.
CC1OCC2(CCN(c3cnc(Sc4ccnc(N)c4Cl)c(N)n3)CC2)C1N (stereo not given) + C=CC(=O)N1CCN(c2nc(=O)n(-c3c(C)ccnc3C(C)C)c3nc(-c4c(O)cccc4F)c(F)cc23)C(C)C1 gave a viability, T/C of 15.8%.
In the case of CCNC(=O)CC1N=C(c2ccc(Cl)cc2)c2cc(OC)ccc2-n2c(C)nnc21 (stereo not given) + C=CC(=O)N1CCN(c2nc(=O)n(-c3c(C)ccnc3C(C)C)c3nc(-c4c(O)cccc4F)c(F)cc23)C(C)C1, the viability, T/C is reported as 28.3%.
Cn1nccc1Nc1nccc(-c2cc3c(s2)C(C)(C)N(CCN2CCOCC2)C3=O)n1 + C=CC(=O)N1CCN(c2nc(=O)n(-c3c(C)ccnc3C(C)C)c3nc(-c4c(O)cccc4F)c(F)cc23)C(C)C1 gave a viability, T/C of 51.3%.

Same assay, conditions: second compound 3.16 µM; first compound 10 µM; stronger effect = lower value
Work on CC1OCC2(CCN(c3cnc(Sc4ccnc(N)c4Cl)c(N)n3)CC2)C1N (stereo not given) + C=CC(=O)N1CCN(c2nc(=O)n(-c3c(C)ccnc3C(C)C)c3nc(-c4c(O)cccc4F)c(F)cc23)C(C)C1 yielded a viability, T/C of 13%.
CCNC(=O)CC1N=C(c2ccc(Cl)cc2)c2cc(OC)ccc2-n2c(C)nnc21 (stereo not given) + C=CC(=O)N1CCN(c2nc(=O)n(-c3c(C)ccnc3C(C)C)c3nc(-c4c(O)cccc4F)c(F)cc23)C(C)C1 showed a viability, T/C of 28.3%.
With Cn1nccc1Nc1nccc(-c2cc3c(s2)C(C)(C)N(CCN2CCOCC2)C3=O)n1 + C=CC(=O)N1CCN(c2nc(=O)n(-c3c(C)ccnc3C(C)C)c3nc(-c4c(O)cccc4F)c(F)cc23)C(C)C1 the viability, T/C was 71.1%.

Same assay, conditions: second compound 10 µM; first compound 0.01 µM; stronger effect = lower value
CC1COCCN1c1cc(-c2ccnn2C)c2ccnc(-c3ccn[nH]3)c2n1 (stereo not given) + C=CC(=O)N1CCN(c2nc(=O)n(-c3c(C)ccnc3C(C)C)c3nc(-c4c(O)cccc4F)c(F)cc23)C(C)C1 showed a viability, T/C of 20.9%.

Same assay, conditions: second compound 10 µM; first compound 0.0316 µM; stronger effect = lower value
CC1COCCN1c1cc(-c2ccnn2C)c2ccnc(-c3ccn[nH]3)c2n1 (stereo not given) + C=CC(=O)N1CCN(c2nc(=O)n(-c3c(C)ccnc3C(C)C)c3nc(-c4c(O)cccc4F)c(F)cc23)C(C)C1 showed a viability, T/C of 17.4%.
CC1OCC2(CCN(c3cnc(Sc4ccnc(N)c4Cl)c(N)n3)CC2)C1N (stereo not given) + C=CC(=O)N1CCN(c2nc(=O)n(-c3c(C)ccnc3C(C)C)c3nc(-c4c(O)cccc4F)c(F)cc23)C(C)C1 showed a viability, T/C of 33%.
CCNC(=O)CC1N=C(c2ccc(Cl)cc2)c2cc(OC)ccc2-n2c(C)nnc21 (stereo not given) + C=CC(=O)N1CCN(c2nc(=O)n(-c3c(C)ccnc3C(C)C)c3nc(-c4c(O)cccc4F)c(F)cc23)C(C)C1 showed a viability, T/C of 46.4%.
Work on Cn1nccc1Nc1nccc(-c2cc3c(s2)C(C)(C)N(CCN2CCOCC2)C3=O)n1 + C=CC(=O)N1CCN(c2nc(=O)n(-c3c(C)ccnc3C(C)C)c3nc(-c4c(O)cccc4F)c(F)cc23)C(C)C1 yielded a viability, T/C of 45.7%.

Same assay, conditions: second compound 10 µM; first compound 0.1 µM; stronger effect = lower value
CC1COCCN1c1cc(-c2ccnn2C)c2ccnc(-c3ccn[nH]3)c2n1 (stereo not given) + C=CC(=O)N1CCN(c2nc(=O)n(-c3c(C)ccnc3C(C)C)c3nc(-c4c(O)cccc4F)c(F)cc23)C(C)C1 was tested, and the viability, T/C was 16.8%.
In the case of CC1OCC2(CCN(c3cnc(Sc4ccnc(N)c4Cl)c(N)n3)CC2)C1N (stereo not given) + C=CC(=O)N1CCN(c2nc(=O)n(-c3c(C)ccnc3C(C)C)c3nc(-c4c(O)cccc4F)c(F)cc23)C(C)C1, the viability, T/C is reported as 29.1%.
With CCNC(=O)CC1N=C(c2ccc(Cl)cc2)c2cc(OC)ccc2-n2c(C)nnc21 (stereo not given) + C=CC(=O)N1CCN(c2nc(=O)n(-c3c(C)ccnc3C(C)C)c3nc(-c4c(O)cccc4F)c(F)cc23)C(C)C1 the viability, T/C was 38.4%.
Work on Cn1nccc1Nc1nccc(-c2cc3c(s2)C(C)(C)N(CCN2CCOCC2)C3=O)n1 + C=CC(=O)N1CCN(c2nc(=O)n(-c3c(C)ccnc3C(C)C)c3nc(-c4c(O)cccc4F)c(F)cc23)C(C)C1 yielded a viability, T/C of 45.2%.

Same assay, conditions: second compound 10 µM; first compound 0.316 µM; stronger effect = lower value
Work on CC1COCCN1c1cc(-c2ccnn2C)c2ccnc(-c3ccn[nH]3)c2n1 (stereo not given) + C=CC(=O)N1CCN(c2nc(=O)n(-c3c(C)ccnc3C(C)C)c3nc(-c4c(O)cccc4F)c(F)cc23)C(C)C1 yielded a viability, T/C of 13.2%.
For CC1OCC2(CCN(c3cnc(Sc4ccnc(N)c4Cl)c(N)n3)CC2)C1N (stereo not given) + C=CC(=O)N1CCN(c2nc(=O)n(-c3c(C)ccnc3C(C)C)c3nc(-c4c(O)cccc4F)c(F)cc23)C(C)C1, the viability, T/C was 19.4%.
Molecule CCNC(=O)CC1N=C(c2ccc(Cl)cc2)c2cc(OC)ccc2-n2c(C)nnc21 (stereo not given) + C=CC(=O)N1CCN(c2nc(=O)n(-c3c(C)ccnc3C(C)C)c3nc(-c4c(O)cccc4F)c(F)cc23)C(C)C1 has a viability, T/C of 27.7%.
Work on Cn1nccc1Nc1nccc(-c2cc3c(s2)C(C)(C)N(CCN2CCOCC2)C3=O)n1 + C=CC(=O)N1CCN(c2nc(=O)n(-c3c(C)ccnc3C(C)C)c3nc(-c4c(O)cccc4F)c(F)cc23)C(C)C1 yielded a viability, T/C of 42.6%.

Same assay, conditions: second compound 10 µM; first compound 1 µM; stronger effect = lower value
CC1COCCN1c1cc(-c2ccnn2C)c2ccnc(-c3ccn[nH]3)c2n1 (stereo not given) + C=CC(=O)N1CCN(c2nc(=O)n(-c3c(C)ccnc3C(C)C)c3nc(-c4c(O)cccc4F)c(F)cc23)C(C)C1 was tested, and the viability, T/C was 13.4%.
With CC1OCC2(CCN(c3cnc(Sc4ccnc(N)c4Cl)c(N)n3)CC2)C1N (stereo not given) + C=CC(=O)N1CCN(c2nc(=O)n(-c3c(C)ccnc3C(C)C)c3nc(-c4c(O)cccc4F)c(F)cc23)C(C)C1 the viability, T/C was 16.4%.
For CCNC(=O)CC1N=C(c2ccc(Cl)cc2)c2cc(OC)ccc2-n2c(C)nnc21 (stereo not given) + C=CC(=O)N1CCN(c2nc(=O)n(-c3c(C)ccnc3C(C)C)c3nc(-c4c(O)cccc4F)c(F)cc23)C(C)C1, the viability, T/C was 24.9%.
Cn1nccc1Nc1nccc(-c2cc3c(s2)C(C)(C)N(CCN2CCOCC2)C3=O)n1 + C=CC(=O)N1CCN(c2nc(=O)n(-c3c(C)ccnc3C(C)C)c3nc(-c4c(O)cccc4F)c(F)cc23)C(C)C1 was tested, and the viability, T/C was 42.5%.

Same assay, conditions: second compound 10 µM; first compound 3.16 µM; stronger effect = lower value
For CC1COCCN1c1cc(-c2ccnn2C)c2ccnc(-c3ccn[nH]3)c2n1 (stereo not given) + C=CC(=O)N1CCN(c2nc(=O)n(-c3c(C)ccnc3C(C)C)c3nc(-c4c(O)cccc4F)c(F)cc23)C(C)C1, the viability, T/C was 13.2%.
With CC1OCC2(CCN(c3cnc(Sc4ccnc(N)c4Cl)c(N)n3)CC2)C1N (stereo not given) + C=CC(=O)N1CCN(c2nc(=O)n(-c3c(C)ccnc3C(C)C)c3nc(-c4c(O)cccc4F)c(F)cc23)C(C)C1 the viability, T/C was 11.5%.
CCNC(=O)CC1N=C(c2ccc(Cl)cc2)c2cc(OC)ccc2-n2c(C)nnc21 (stereo not given) + C=CC(=O)N1CCN(c2nc(=O)n(-c3c(C)ccnc3C(C)C)c3nc(-c4c(O)cccc4F)c(F)cc23)C(C)C1 gave a viability, T/C of 20.1%.
Cn1nccc1Nc1nccc(-c2cc3c(s2)C(C)(C)N(CCN2CCOCC2)C3=O)n1 + C=CC(=O)N1CCN(c2nc(=O)n(-c3c(C)ccnc3C(C)C)c3nc(-c4c(O)cccc4F)c(F)cc23)C(C)C1 showed a viability, T/C of 43.3%.

Same assay, conditions: second compound 10 µM; first compound 10 µM; stronger effect = lower value
CC1OCC2(CCN(c3cnc(Sc4ccnc(N)c4Cl)c(N)n3)CC2)C1N (stereo not given) + C=CC(=O)N1CCN(c2nc(=O)n(-c3c(C)ccnc3C(C)C)c3nc(-c4c(O)cccc4F)c(F)cc23)C(C)C1 gave a viability, T/C of 12.1%.
CCNC(=O)CC1N=C(c2ccc(Cl)cc2)c2cc(OC)ccc2-n2c(C)nnc21 (stereo not given) + C=CC(=O)N1CCN(c2nc(=O)n(-c3c(C)ccnc3C(C)C)c3nc(-c4c(O)cccc4F)c(F)cc23)C(C)C1 was tested, and the viability, T/C was 18.5%.
Cn1nccc1Nc1nccc(-c2cc3c(s2)C(C)(C)N(CCN2CCOCC2)C3=O)n1 + C=CC(=O)N1CCN(c2nc(=O)n(-c3c(C)ccnc3C(C)C)c3nc(-c4c(O)cccc4F)c(F)cc23)C(C)C1 was tested, and the viability, T/C was 53.6%.
